Measured values as given in PubChem BioAssay AID330 (DTP/NCI, 2004).
Where “and” joins values, the source holds several entries; their conditions need not be identical. Identical values can stand only once. Toxic doses and inconclusive results are not listed. Rule for the calls: active = survival T/C of 150% or more; inactive = T/C below 125% in these data.

Test system: P388 leukemia ip, CD2F1 mice, survival T/C
Assay: NCI In Vivo Anticancer Drug Screen. Data for tumor model P388 Leukemia (intraperitoneal) in CD2F1 (CDF1) mice
Settings: endpoint: median survival time, higher = longer survival
Method in brief: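 Mice carrying the transplanted tumor received test compound or vehicle. Survival was recorded in each group, and the value is the treated-group measurement divided by that of the vehicle-treated control group.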

[1] = dose: 12.5 mg/kg/injection, schedule: Q01DX009 (ip), vehicle: saline
[2] = dose: 25.0 mg/kg/injection, schedule: Q01DX009 (ip), vehicle: saline
[3] = dose: 50.0 mg/kg/injection, schedule: Q01DX009 (ip), vehicle: saline

Measured: T/C

CN=C(NC)c1ccc(NC(=O)c2cc(Cl)cc(C(=O)Nc3ccc(C(=NC)NC)cc3)c2)cc1
inactive: dose: 6.25 mg/kg/injection, schedule: Q01DX005 (ip), vehicle: saline 98 % of control | dose: 12.5 mg/kg/injection, schedule: Q01DX005 (ip), vehicle: saline 113 % of control | dose: 25.0 mg/kg/injection, schedule: Q01DX005 (ip), vehicle: saline 118 % of control

O=c1n(CC2CO2)c(=O)n(CC2CO2)c(=O)n1CC1CO1 (stereo not drawn)
active: dose: 6.25 mg/kg/injection, schedule: Q01DX009 (ip), vehicle: suspension in saline 203 % of control and 172 % of control | [1] 165 % of control and 186 % of control | dose: 12.5 mg/kg/injection, schedule: Q01DX009 (ip), vehicle: suspension in saline 197 % of control and 216 % of control | dose: 15.0 mg/kg/injection, schedule: Q01DX005 (ip), vehicle: saline with Tween-80 200 % of control | dose: 15.0 mg/kg/injection, schedule: Q01DX005 (ip), vehicle: saline 161 % of control | dose: 20.0 mg/kg/injection, schedule: Q01DX009 (ip), vehicle: saline 313 % of control | dose: 20.0 mg/kg/injection, schedule: Q01DX009 (sc), vehicle: saline 172 % of control and 220 % of control | [2] 167 % of control and 205 % of control | dose: 25.0 mg/kg/injection, schedule: Q01DX009 (ip), vehicle: suspension in saline 226 % of control and 281 % of control | dose: 25.0 mg/kg/injection, schedule: Q01DX009 (sc), vehicle: saline 157 % of control and 265 % of control | dose: 30.0 mg/kg/injection, schedule: Q01DX005 (ip), vehicle: saline 192 % of control | dose: 30.0 mg/kg/injection, schedule: Q01DX009 (ip), vehicle: saline 272 % of control and 290 % of control and 316 % of control | dose: 30.0 mg/kg/injection, schedule: Q01DX009 (sc), vehicle: saline 161 % of control and 247 % of control | dose: 40.0 mg/kg/injection, schedule: Q01DX009 (sc), vehicle: saline 277 % of control | dose: 40.0 mg/kg/injection, schedule: Q04DX003 (ip), vehicle: saline 184 % of control and 188 % of control and 218 % of control | [3] 200 % of control [middle of 5 runs] | dose: 50.0 mg/kg/injection, schedule: Q04DX003 (ip), vehicle: saline 206 % of control and 217 % of control and 290 % of control | dose: 60.0 mg/kg/injection, schedule: Q01DX001 (ip), vehicle: other 262 % of control and 271 % of control | dose: 60.0 mg/kg/injection, schedule: Q01DX001 (ip), vehicle: saline 271 % of control | dose: 60.0 mg/kg/injection, schedule: Q01DX001 (ip), vehicle: water 260 % of control | dose: 60.0 mg/kg/injection, schedule: Q04DX003 (ip), vehicle: saline 233 % of control and 245 % of control and 300 % of control | dose: 70.0 mg/kg/injection, schedule: Q01DX001 (ip), vehicle: other 231 % of control and 281 % of control | dose: 70.0 mg/kg/injection, schedule: Q01DX001 (ip), vehicle: saline 274 % of control | dose: 70.0 mg/kg/injection, schedule: Q01DX001 (ip), vehicle: water 184 % of control | dose: 80.0 mg/kg/injection, schedule: Q01DX001 (ip), vehicle: other 291 % of control and 349 % of control | dose: 80.0 mg/kg/injection, schedule: Q01DX001 (ip), vehicle: saline 291 % of control | dose: 80.0 mg/kg/injection, schedule: Q01DX001 (ip), vehicle: water 223 % of control | dose: 90.0 mg/kg/injection, schedule: Q01DX001 (ip), vehicle: saline 420 % of control | dose: 100.0 mg/kg/injection, schedule: Q01DX001 (ip), vehicle: saline 210 % of control | dose: 100.0 mg/kg/injection, schedule: Q01DX009 (ip), vehicle: saline 285 % of control and 156 % of control and 228 % of control
inactive: dose: 50.0 mg/kg/injection, schedule: Q01DX009 (ip), vehicle: suspension in saline 100 % of control | dose: 200.0 mg/kg/injection, schedule: Q01DX009 (ip), vehicle: saline 107 % of control

CCOCCOCCOC12C(=O)C(Cl)=C(Cl)C(=O)C13C1CC2C(Cl)C13 (stereo not drawn)
inactive: [1] 98 % of control | [2] 105 % of control | [3] 105 % of control and 106 % of control
